Assay results published in patent US6555328B1, “Screening methods for altering circadian rhythms and for human casein kinase I δ and/or ε phosphorylation of human clock proteins, period 1, -2 and -3” (Aventis Pharmaceuticals Inc., priority 1999, dated 2003).

Tests used:
Type in all cases: cell-based
[1] = target: hCKIε phosphorylation of hPER1 (Homo sapiens, UniProt P49674); experiment: Treatment of transfected cells with hCKIε inhibitor: hPER1 phosphorylation
Source text: (§1) Furthermore, like hCKIε and hPER1, HCKIε co-immunoprecipitates with transfected hPER2. Treatment of transfected cells with the hCKIε inhibitor, CKI-7, results in a decrease of hPER1 and hPER2 phosphorylation. Pulse/chase studies reveal that increased phosphorylation of hPER2 by transfected hCKIε caused hPER2 to be degraded.

[2] = target: hCKIε phosphorylation of hPER2 (Homo sapiens, UniProt P49674); experiment: Treatment of transfected cells with hCKIε inhibitor: hPER2 phosphorylation
Sequence of hCKIε phosphorylation of hPER2 (P49674 whole entry): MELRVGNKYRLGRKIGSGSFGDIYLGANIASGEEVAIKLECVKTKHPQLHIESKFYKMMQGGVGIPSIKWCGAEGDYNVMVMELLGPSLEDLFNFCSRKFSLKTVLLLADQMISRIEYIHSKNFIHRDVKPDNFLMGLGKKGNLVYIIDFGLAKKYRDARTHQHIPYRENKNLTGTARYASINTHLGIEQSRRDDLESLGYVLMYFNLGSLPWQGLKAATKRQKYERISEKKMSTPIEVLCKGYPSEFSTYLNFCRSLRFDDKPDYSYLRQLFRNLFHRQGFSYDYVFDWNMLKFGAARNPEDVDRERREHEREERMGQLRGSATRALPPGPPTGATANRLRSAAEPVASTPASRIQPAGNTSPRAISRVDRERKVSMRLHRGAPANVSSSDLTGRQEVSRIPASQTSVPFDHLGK
Source text: as §1

[3] = system: rat PER1 oscillation in Rat1 fibroblast or Rat SCN cells; experiment: PER1 mRNA oscillation after serum shock by TaqMan RT-PCR; conditions: 10 uM, FIG. 10/11
Method: To test the effect of CKI inhibitors in altering rat PER1 oscillation by quantitative PCR using TaqMan RT-PCR (Perkin Elmer Biosystems), rat-1 fibriblasts are grown in Dulbecco's modified Eagle medium supplimented with 5% fetal calf serum and a mixture of penicillin-streptomycin-glutatamine. SCN cells are grown in Dulbecco's Minimum Eagle medium supplimented with 10% fetal calf serum penicillin-streptomycin-glutamine and 2% glucose. Approximately 5×10^5 cells are plated in 10 cm petri dishes 3-5 days prior to the experiment. Once the plates are confluent, which is designated as time=0, the medium is exchanged with serum rich medium, i.e. serum containing 50% horse serum. After 2 hours of the serum shock in 50% horse serum, this medium is replaced with serum-free medium. At indicated times, the dishes are washed with PBS and kept frozen at −80° C. until the extraction of whole cell mRNA. hCK1ε inhibitor or control is added at the time when serum-free medium is added.
Whole cell mRNA is extracted by means of RNeasy Midi kit or Rnleasy 96 kit (Qiagen) and Dnase treated (Ambion DNA-free). Quantitative PCR is performed with real-time Taq-Man technology (PE Biosystems) [C. A. Heid et al., Genomes Res. 6. M (1996)] and analysed on an ABI PRISM 7700 (T. Takumi et al., Genes Cells 4, 67: 1999). […] Ratios of rPer1 to rActin were calculated and normalized.

Sequence of hCKIε phosphorylation of hPER1 (P49674 whole entry): as above

Row | Compound | hPER1 phosphorylation [1] | hPER2 phosphorylation [2] | effect on circadian rhythm of cells (rat Per1 mRNA levels) [3]
1 | NCCNS(=O)(=O)c1ccc(Cl)c2ccncc12 [CKI-7] | decrease | decrease | 
2 | CNCCC(Oc1ccc(C(F)(F)F)cc1)c1ccccc1 (stereo not drawn) [F, Fluoxitin] |  |  | do not alter the circadian rhythm of cells
